# Data from article PMC4277420, “Assessment of [^125I]WYE-230949 as a Novel Histamine H3 Receptor Radiopharmaceutical” (PLoS ONE, 2014).
# Read-outs that look alike come from different tables or passages of the source.
# Tests used:
# [1] = target: rat histamine H3 receptors; set-up: method as in earlier work; settings: rat histamine H3 receptor; cited from earlier work
# [2] = target: human histamine H3 receptors; set-up: method as in earlier work; settings: human histamine H3 receptor; cited from earlier work
# [3] = target: T1, rat histamine H3 receptor (Rattus norvegicus, UniProt Q9QYN8); assay: In vitro saturation radioligand binding to rat brain homogenates; settings: whole rat brain homogenates, one-site binding model, n = 8
# T1 construct: from tissue; host or cells: whole brain of male Sprague-Dawley rats, homogenate pellet
# T1 sequence (Q9QYN8 whole entry): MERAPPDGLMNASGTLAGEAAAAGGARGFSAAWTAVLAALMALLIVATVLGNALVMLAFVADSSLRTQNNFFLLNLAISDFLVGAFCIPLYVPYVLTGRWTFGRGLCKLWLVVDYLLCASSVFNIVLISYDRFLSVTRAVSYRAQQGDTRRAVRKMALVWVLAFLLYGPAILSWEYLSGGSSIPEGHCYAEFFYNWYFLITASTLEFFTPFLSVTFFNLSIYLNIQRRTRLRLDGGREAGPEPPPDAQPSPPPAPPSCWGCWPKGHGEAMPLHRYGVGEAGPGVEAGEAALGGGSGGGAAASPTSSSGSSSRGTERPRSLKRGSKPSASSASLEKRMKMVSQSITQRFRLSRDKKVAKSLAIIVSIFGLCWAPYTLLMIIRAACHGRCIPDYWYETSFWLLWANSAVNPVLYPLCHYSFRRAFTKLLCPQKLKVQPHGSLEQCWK
# Protocol: Animals (male Sprague-Dawley rats; Harlan, UK) were killed by cervical dislocation. Whole brains were immediately excised and placed into ice-cold Tris-HCl buffer (Tris […], pH 7.4; EDTA 5 mM), homogenised and centrifuged at approx 40,000 g for 10 min at 4°C (Beckman J2-21M/E). The pellet was resuspended in 25 ml of buffer and centrifuged as previously, then the final pellet was resuspended in 10 ml of ice cold Tris buffer and stored at −50°C until required. Protein content was analysed using Bio-Rad reagent; absorbance was read on a spectrophotometer at 562 nm. [^125I]WYE230949 binding assays were carried out in a final incubation volume of 500 µl containing Tris-HCl buffer (Tris […], pH 7.4; EDTA 5 mM), brain homogenates (1.47 to 2.27 mg/ml of protein) and [^125I]WYE230949 (0.04–102 nM). Non-specific binding was defined in the presence of 10 µM iodophenpropit. Samples were incubated at 30°C for 30 min, then filtered rapidly through Whatman GF/B filters (pre-treated with 0.3% polyethylenimine; Aldrich, UK) using a Brandel M24R cell harvester and the filters washed with 3×4 ml ice-cold Tris buffer. Radioactivity on the filters was determined by liquid scintillation counting a minimum of 48 h after filtration. All assays were performed in triplicate. Specific binding was determined by subtracting non-specific binding from total binding at each concentration; Kd and Bmax values derived using GraphPad Prism (version 4.03), and expressed as mean ±SEM of the triplicate assays.
# [4] = set-up: method as in PMID 16934699, PMID 17998102; settings: cited from earlier work
# [5] = set-up: method as in PMID 16934699; settings: rats, 5 min post injection; cited from earlier work
# [6] = cited from earlier work
# [7] = set-up: method as in PMID 19910432; settings: porcine brain, 20 min post injection; cited from earlier work
# [8] = cited from earlier work; remark: listed apart in the source
# [9] = cited from earlier work; remark: listed apart in the source
# [10] = target: T1, rat histamine H3 receptor; settings: rat striatum; cited from earlier work
smiles,measurement,setting,value
O=C(c1ccc(Cn2cnc3cccc(I)c32)cc1)N1CC[C@H](N2CCCC2)C1 [WYE-230949],Ki,[1],5.7 nM
same,Ki,[2],0.3 nM
O=C(c1ccc(Cn2cnc3cccc(I)c32)cc1)N1CC[C@H](N2CCCC2)C1 [[^125I]WYE-230949],Kd,[3],6.9 nM
"C(#Cc1cccc([11CH2]N2CCOCC2)c1)CCN1CCCCC1 [[^11C]JNJ-10181457, 4-[3-(4-piperidin-1-yl-but-1-ynyl)-[^11C]benzyl]-morpholine]",parent remaining in the brain,[4]; 30 min post injection,greater than 80%
same,brain uptake,[5],1.38 %ID/g
[18F]c1ccc(COCCCc2cnc[nH]2)cc1 [[^18F]fluoroproxyfan],parent remaining in the brain,[4]; 30 min post injection,94%
same,parent remaining in the brain,[4]; 120 min post injection,68%
same,parent remaining in plasma,[6]; 30 minutes post injection,43%
[11CH3]NC(=O)c1ccc(Oc2ccc3c(c2)CCN(C2CCC2)CC3)nc1 [[^11C]GSK189254],brain uptake,[7],9.0 %ID/L
same,LogD,[8],1.7
same,parent remaining in plasma,[6]; 30 minutes post injection,58%
same,parent remaining in plasma,[6]; after 90 min,55%
[123I]c1ccc(COCCCc2cnc[nH]2)cc1 [[^123I]iodoproxyfan],peak brain uptake,[9],~1.5 %ID/g
same,Bmax,[10],78 fmol/mg of protein
